Reference: publication PMC6303473 (Nature Communications, 2018)

Tested on: CD8+ T cells from HLA-B*44:02, HLA-B*44:03, or HLA-B*18:01 individuals
Format: cell-based, human
Conditions: ICS
Source text: Fig. 1 NP338 elicits robust CD8^+ T cell responses only in the context of HLA-B*37:01. a–d Crystal structures of a HLA-B*37:01 (purple), b HLA-B*18:01 (blue), and c HLA-B*44:05 (yellow) in complex with NP338 WT (represented in black stick). d is showing an overlay of the three peptide–HLA complexes in cartoon representation, with NP338 colored accordingly to the bound HLA, namely, purple (HLA-B*37:01), blue (HLA-B*18:01), and yellow (HLA-B*44:05). e–g PBMCs from HLA-B*37:01^+ donors (n = 5), HLA-B*44:02^+ donors (n = 5), HLA-B*44:03^+ donors (n = 5), or HLA-B*18:01^+ donors (n = 5) were stimulated with a pool of NP338 peptides (10 μM each peptide, 30 μM total), and specificity was assessed in an ICS assay against 3 μM NP338 pool (1 μM each peptide, HLA-B*44:02^+ donors) directly into the well or 30 μM (10 μM each peptide, all other donors) NP338-pooled pulsed APC lines (HLA-B*37:01, HLA-B*44:03, and HLA-B*18:01). CD8^+ T cells are gated on lymphocytes, singlets, live^+ (when stained with the second antibody cocktail only) CD3^mid-high, CD8^+ T cells; as per Supplementary Fig. 2a. e Representative dot plots of IFNγ^+TNFα^+ production by pooled CD8^+ T cell lines derived from HLA-B*37:01^+, HLA-B*44:02^+, HLA-B*44:03^+, or HLA-B*18:01^+ donors, towards a pool of NP338 peptides. […]

Compound | CD8+ T cell response to non-specific stimulation
CCCCCCCCCCCCCC(=O)O[C@@H]1[C@@H](C)[C@@]2(O)[C@@H](C=C(CO)C[C@]3(O)C(=O)C(C)=C[C@@H]23)[C@@H]2C(C)(C)[C@]12OC(C)=O [phorbol 12-myristate 13-acetate] | responded strongly
Concanavalin A | responded strongly
